Reference: US20130237533A1, “CDK Inhibitors” (G1 THERAPEUTICS, INC., priority 2010, published 2013)
Read-outs that look alike come from different tables or passages of the source.

Target: CDK2/cyclinE (Homo sapiens, UniProt P24941)
Assay: Caliper LabChip kinase enzymatic assay, CDK2/cyclinE
Type: biochemical
Method: Kinase enzymatic reactions were performed in 384-well microplates using a 12-channel Caliper LabChip instrument as a detection device. […] As substrate and product are separated, two peaks of fluorescence are observed. Change in the relative fluorescence intensity of the substrate and product peaks is the parameter measured, reflecting enzyme activity. In the presence of an inhibitor, the ratio between product and substrate is altered. The signal of the product decreases, while the signal of the substrate increases.
Potential inhibitor compounds (as HCl salts) were tested using 12-point dose response curves in single point at the Km, for ATP. The IC50 of each compound was determined using GraphPad Prism.

[1] = Table 2, class symbols, read-out: CDK2/CycE IC50

SMILES | IC50 [1] [nM] | IC50 (enzyme 0.22 nM, (at the Km for ATP), one hour, 12-point dose response, compounds as HCl salts, read-out: CDK2/cyclinE IC50) [nM]
CCC(C)[C@H]1CNC(=O)c2cc3cnc(Nc4ccc(N5CCN(C)CC5)cn4)nc3n21 (some centres unmarked) [Compound 16] | 1000 to 100000 | –
O=C1NCCn2c1cc1cnc(Nc3ccc(N4CCNCC4)cn3)nc12 [Compound 3] | > 100000 | > 100000
CC1CN(c2ccc(Nc3ncc4cc5n(c4n3)C3(CCCC3)CNC5=O)nc2)CC(C)O1 (centres unmarked) [Compound 37] | 1000 to 100000 | –
CC(C)[C@H]1Cn2c(cc3cnc(Nc4ccc(N5CCNCC5)cn4)nc32)C(=O)N1 [Compound 24] | 1000 to 100000 | –
CC(C)[C@@H]1Cn2c(cc3cnc(Nc4ccc(N5CCNCC5)cn4)nc32)C(=O)N1 [Compound 25] | 1000 to 100000 | –
CN1CCN(c2ccc(Nc3ncc4cc5n(c4n3)C3(CCCC3)CNC5=O)nc2)CC1 [Compound 29] | 1000 to 100000 | –
O=C1NCC2(CCCC2)n2c1cc1cnc(Nc3ccc(N4CCC(N5CCOCC5)CC4)cn3)nc12 [Compound 39] | 1000 to 100000 | –
CN1CCN(c2ccc(Nc3ncc4cc5n(c4n3)[C@@H](c3ccccc3)CNC5=O)nc2)CC1 [Compound 22] | 1000 to 100000 | –
CC1(C)CNC(=O)c2cc3cnc(Nc4ccc(N5CCNCC5)cn4)nc3n21 [Compound 26] | 1000 to 100000 | –
O=C1NCC2(CCCC2)n2c1cc1cnc(Nc3ccc(N4CCOCC4)cc3)nc12 [Compound 34] | 10 to 100 | –
CN1C[C@H](C(C)(C)C)n2c(cc3cnc(Nc4ccc(N5CCNCC5)cn4)nc32)C1=O [Compound 21] | 1000 to 100000 | –
O=C1NC[C@H](c2ccccc2)n2c1cc1cnc(Nc3ccc(N4CCNCC4)cn3)nc12 [Compound 23] | 100 to 1000 | –
CC(C)CN1CCN(c2ccc(Nc3ncc4cc5n(c4n3)C3(CCCC3)CNC5=O)nc2)CC1 [Compound 36] | 1000 to 100000 | –
O=C1NCC2(CCCC2)n2c1cc1cnc(Nc3ccc(N4CCC(N5CCCCC5)CC4)cn3)nc12 [Compound 40] | 1000 to 100000 | –
O=C1NCC2(CCCC2)n2c1cc1cnc(Nc3ccc(N4CCOCC4)cn3)nc12 [Compound 32] | 1000 to 100000 | –
CC(C)N1CCN(c2ccc(Nc3ncc4cc5n(c4n3)C3(CCCC3)CNC5=O)nc2)CC1 [Compound 35] | 1000 to 100000 | –
O=C1NCC2(CCCC2)n2c1cc1cnc(Nc3ccc(N4CCOCC4)nn3)nc12 [Compound 33] | 1000 to 100000 | –
O=C1NCC2(CCCC2)n2c1cc1cnc(Nc3ccc(N4CCCCC4)cn3)nc12 [Compound 38] | 1000 to 100000 | –
O=C1NCC2(CCCC2)n2c1cc1cnc(Nc3ccc(N4CCSCC4)cn3)nc12 [Compound 41] | 1000 to 100000 | –
O=C1NCC2(CCCC2)n2c1cc1cnc(Nc3ccc(N4CCNCC4)cn3)nc12 [Compound 30] | 1000 to 100000 | –

The next lines start with the values.

IC50 [1] [nM] | IC50 (enzyme 0.22 nM, (at the Km for ATP), one hour, 12-point dose response, compounds as HCl salts, read-out: CDK2/cyclinE IC50) [nM] | SMILES
100 to 1000 | – | CC(C)(C)[C@H]1CNC(=O)c2cc3cnc(Nc4ccc(N5CCNCC5)cn4)nc3n21 [Compound 20]
1000 to 100000 | – | CC(C)CC1CNC(=O)c2cc3cnc(Nc4ccc(N5CCNCC5)cn4)nc3n21 (centres unmarked) [Compound 46]
1000 to 100000 | – | CC(C)C[C@H]1CNC(=O)c2cc3cnc(Nc4ccc(N5CCNCC5)cn4)nc3n21 [Compound 13]
1000 to 100000 | – | CCC(C)[C@H]1CNC(=O)c2cc3cnc(Nc4ccc(N5CCNCC5)cn4)nc3n21 (some centres unmarked) [Compound 17]
1000 to 100000 | – | CC(C)[C@H]1CNC(=O)c2cc3cnc(Nc4ccc(N5CCNCC5)cn4)nc3n21 [Compound 10]
1000 to 100000 | – | CC(C)C[C@H]1CNC(=O)c2cc3cnc(Nc4ccc(N5CCN(C)CC5)cn4)nc3n21 [Compound 12]
1000 to 100000 | – | CC(C)C1CNC(=O)c2cc3cnc(Nc4ccc(N5CCNCC5)cn4)nc3n21 (centres unmarked) [Compound 8]
1000 to 100000 | – | CC(C)[C@@H]1CNC(=O)c2cc3cnc(Nc4ccc(N5CCNCC5)cn4)nc3n21 [Compound 9]
